Test results as given in ChEMBL document CHEMBL1201862, “PubChem BioAssay data set” (2004).
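96-well plates; 48 h exposure; 5 concentrations. Endpoints by linear interpolation between flanking doses. Not reached: highest tested concentration assigned. Abbreviation: GI50, concentration required for 50% inhibition of growth.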 Activity calls are given as the source filed them. Rule as the data show it: active = GI50 up to about 1.1 µM and inactive = higher.

Legend:
Assay in all cases: inhibition of tumour cell growth, NCI panel, 48 h
CCRF-CEM = system: CCRF-CEM
MCF7 = system: MCF7
HCC 2998 = system: HCC 2998
SK-OV-3 = system: SK-OV-3
UO-31 = system: UO-31
NCI/ADR-RES = system: NCI/ADR-RES
SK-MEL-5 = system: SK-MEL-5
T47D = system: T47D
TK-10 = system: TK-10
SK-MEL-28 = system: SK-MEL-28
SF-295 = system: SF-295
HT-29 = system: HT-29
MDA-MB-231 = system: MDA-MB-231
M14 = system: M14
RXF 393 = system: RXF 393
RPMI-8226 = system: RPMI-8226
ACHN = system: ACHN
MDA-N = system: MDA-N
NCI-H522 = system: NCI-H522

| SMILES | GI50 (CCRF-CEM) | GI50 (MCF7) | GI50 (HCC 2998) | GI50 (SK-OV-3) | GI50 (UO-31) | GI50 (NCI/ADR-RES) | GI50 (SK-MEL-5) | GI50 (T47D) | GI50 (TK-10) | GI50 (SK-MEL-28) | GI50 (SF-295) | GI50 (HT-29) | GI50 (MDA-MB-231) | GI50 (M14) | GI50 (RXF 393) | GI50 (RPMI-8226) | GI50 (ACHN) | GI50 (MDA-N) | GI50 (NCI-H522) |
| --- | --- | --- | --- | --- | --- | --- | --- | --- | --- | --- | --- | --- | --- | --- | --- | --- | --- | --- | --- |
| CC(=O)OC12c3ccccc3C(c3ccccc31)C1C(=O)N(c3ccccn3)C(=O)C12 (stereo not drawn) | 57.1 µM (inactive) | > 100 µM (inactive) | 72.6 µM (inactive) | > 100 µM (inactive) | 15.8 µM (inactive) | 55.2 µM (inactive) | 27.9 µM (inactive) | 53.3 µM (inactive) | > 100 µM (inactive) | 85.9 µM (inactive) | 58.2 µM (inactive) | 62.4 µM (inactive) | 77.8 µM (inactive) | 51.8 µM (inactive) | > 100 µM (inactive) | 27.1 µM (inactive) |  |  |  |
| C=CCOC(=O)CC[N+]1=CCC(c2ccccc2)(c2ccccc2)O1 |  | > 100 µM (inactive) | > 100 µM (inactive) | > 100 µM (inactive) | > 100 µM (inactive) |  | > 100 µM (inactive) | > 100 µM (inactive) | > 100 µM (inactive) | > 100 µM (inactive) | > 100 µM (inactive) | > 100 µM (inactive) | > 100 µM (inactive) | > 100 µM (inactive) | > 100 µM (inactive) |  | > 100 µM (inactive) | > 100 µM (inactive) | > 100 µM (inactive) |
| CCN(CC)c1ccc(/C=C/C(=O)c2cc(C(C)(C)C)c(O)c(C(C)(C)C)c2)cc1 | 3.85 µM (inactive) | 3.64 µM (inactive) | 16.3 µM (inactive) | 28.2 µM (inactive) | 17.6 µM (inactive) | 4.38 µM (inactive) | 16.3 µM (inactive) |  | 5.71 µM (inactive) | > 50.7 µM (inactive) | 2.6 µM (inactive) | 2.71 µM (inactive) | 9.2 µM (inactive) | 21.2 µM (inactive) | 2.7 µM (inactive) | 4.94 µM (inactive) | > 42.6 µM (inactive) | 3.14 µM (inactive) | 3.07 µM (inactive) |
| CCOC(=O)C1(C)CCCc2sc(N)c(C#N)c21 (stereo not drawn) |  | > 100 µM (inactive) | > 100 µM (inactive) |  | > 100 µM (inactive) |  | > 100 µM (inactive) |  | > 100 µM (inactive) | > 100 µM (inactive) |  | > 100 µM (inactive) | > 100 µM (inactive) | > 100 µM (inactive) | > 100 µM (inactive) | > 100 µM (inactive) | > 100 µM (inactive) | > 100 µM (inactive) |  |
| CO[C@H]1C[C@H](n2cc(C)c(=O)[nH]c2=O)O[C@@H]1CO | > 100 µM (inactive) | > 100 µM (inactive) | > 100 µM (inactive) | > 100 µM (inactive) | > 100 µM (inactive) | > 100 µM (inactive) | > 100 µM (inactive) |  | > 100 µM (inactive) | > 100 µM (inactive) | > 100 µM (inactive) | > 100 µM (inactive) | > 100 µM (inactive) | > 100 µM (inactive) | > 100 µM (inactive) | > 100 µM (inactive) | > 100 µM (inactive) | > 100 µM (inactive) |  |
| CN(C)C(=O)C(F)(F)C(c1ccccc1Br)C1C(=O)N(C)C(=O)N(C)C1=O (stereo not drawn) | > 100 µM (inactive) | > 100 µM (inactive) | > 100 µM (inactive) | > 100 µM (inactive) | > 100 µM (inactive) | > 100 µM (inactive) | > 100 µM (inactive) | > 100 µM (inactive) | > 100 µM (inactive) | > 100 µM (inactive) | > 100 µM (inactive) |  | > 100 µM (inactive) | > 100 µM (inactive) | > 100 µM (inactive) | > 100 µM (inactive) | > 100 µM (inactive) |  |  |
| CCOC(=O)c1cn(C)nc1N/C(C)=C\C(=O)c1ccccc1 | > 100 µM (inactive) | > 100 µM (inactive) | > 100 µM (inactive) | > 100 µM (inactive) | > 100 µM (inactive) | > 100 µM (inactive) | > 100 µM (inactive) | > 100 µM (inactive) | > 100 µM (inactive) | > 100 µM (inactive) | > 100 µM (inactive) | 60.1 µM (inactive) | 20.9 µM (inactive) | > 100 µM (inactive) |  |  | > 100 µM (inactive) |  | > 100 µM (inactive) |
| CCNC(=O)Nc1cccc(C)n1 | > 100 µM (inactive) | > 100 µM (inactive) | > 100 µM (inactive) | > 100 µM (inactive) | > 100 µM (inactive) |  | > 100 µM (inactive) | > 100 µM (inactive) | > 100 µM (inactive) | > 100 µM (inactive) | > 100 µM (inactive) | > 100 µM (inactive) | > 100 µM (inactive) | > 100 µM (inactive) | > 100 µM (inactive) |  | > 100 µM (inactive) | > 100 µM (inactive) | > 100 µM (inactive) |
| CCOC(=O)N1CCC2C(=C(C)C(C)C3=C2C(=O)c2ccccc2C3=O)C1 (stereo not drawn) | 9.44 µM (inactive) | 4.21 µM (inactive) | 5.19 µM (inactive) | > 10 µM (inactive) |  |  | 1.77 µM (inactive) | 9.55 µM (inactive) | > 10 µM (inactive) | 5.05 µM (inactive) | 3.82 µM (inactive) | 4.07 µM (inactive) | 4.07 µM (inactive) | 4.73 µM (inactive) | > 10 µM (inactive) | 3.79 µM (inactive) |  | 3.33 µM (inactive) |  |
| Nc1ccc(-c2nc3ccccc3s2)cc1Cl | 10.2 µM (inactive) | < 0.01 µM (active) | > 64.3 µM (inactive) | > 73.8 µM (inactive) | 23.3 µM (inactive) | > 100 µM (inactive) | > 87.3 µM (inactive) |  | < 0.01 µM (active) | > 100 µM (inactive) | 53.5 µM (inactive) | > 100 µM (inactive) | > 92.9 µM (inactive) | > 100 µM (inactive) | > 39.8 µM (inactive) | 36.1 µM (inactive) | > 100 µM (inactive) | > 100 µM (inactive) | 98.6 µM (inactive) |
| C=C[C@@H](C)[C@H](NS(=O)(=O)c1ccc(C)cc1)C(=O)OCC | 28.2 µM (inactive) | 28.8 µM (inactive) |  | 36.6 µM (inactive) | 31.3 µM (inactive) | 41.3 µM (inactive) |  |  | 52.6 µM (inactive) | 35.9 µM (inactive) | 21.2 µM (inactive) | 27.2 µM (inactive) | > 100 µM (inactive) | 54.1 µM (inactive) | 42.3 µM (inactive) | 14 µM (inactive) | 35.6 µM (inactive) | 28 µM (inactive) | 20.6 µM (inactive) |
| Cc1nn(-c2ccccc2)c2nc(S)cnc12 | > 100 µM (inactive) | > 100 µM (inactive) |  | > 100 µM (inactive) | > 100 µM (inactive) | > 100 µM (inactive) |  | > 100 µM (inactive) | > 100 µM (inactive) | > 100 µM (inactive) | > 100 µM (inactive) | > 100 µM (inactive) |  | > 100 µM (inactive) | > 100 µM (inactive) | 89.5 µM (inactive) |  | > 100 µM (inactive) | > 100 µM (inactive) |
| CN(C)c1ccc(-c2[nH]c(=O)c3ccccc3[n+]2C)cc1 | > 100 µM (inactive) | 46.7 µM (inactive) | > 100 µM (inactive) | > 100 µM (inactive) | 39.4 µM (inactive) | 39.1 µM (inactive) | 36.6 µM (inactive) | 41.3 µM (inactive) | > 100 µM (inactive) | > 100 µM (inactive) | > 100 µM (inactive) | 63.4 µM (inactive) | > 100 µM (inactive) | 41.3 µM (inactive) | > 100 µM (inactive) | 63.2 µM (inactive) | 62.5 µM (inactive) |  |  |
| Cc1nc2ccccc2c(=O)n1NC(=S)Nc1cccc(Cl)c1 | > 100 µM (inactive) |  |  | > 100 µM (inactive) | > 100 µM (inactive) |  | > 100 µM (inactive) |  | > 100 µM (inactive) | > 100 µM (inactive) | > 100 µM (inactive) | > 100 µM (inactive) |  | > 100 µM (inactive) | > 100 µM (inactive) | > 100 µM (inactive) | > 100 µM (inactive) |  | 33.7 µM (inactive) |
| CCOC(=O)C1=C(C)OC(=O)[C@@]2(OC)C=C(Cl)[C@@]12C | > 100 µM (inactive) | > 100 µM (inactive) | > 100 µM (inactive) | > 100 µM (inactive) | > 100 µM (inactive) | > 100 µM (inactive) | > 100 µM (inactive) |  | > 100 µM (inactive) | > 100 µM (inactive) | > 100 µM (inactive) | > 100 µM (inactive) | > 100 µM (inactive) | > 100 µM (inactive) | > 100 µM (inactive) | > 100 µM (inactive) | > 100 µM (inactive) | > 100 µM (inactive) | > 100 µM (inactive) |
| O=C(Nc1ccc(S(=O)(=O)N[C@@H](C(=O)O)c2ccccc2)cc1)c1ccc(F)cc1 | > 100 µM (inactive) |  | > 100 µM (inactive) | > 100 µM (inactive) | > 100 µM (inactive) |  | > 100 µM (inactive) |  | > 100 µM (inactive) | > 100 µM (inactive) | > 100 µM (inactive) | > 100 µM (inactive) |  | > 100 µM (inactive) | > 100 µM (inactive) | > 100 µM (inactive) | > 100 µM (inactive) |  | > 100 µM (inactive) |
| O=C(ON=c1c2ccccc2ccc2ccccc12)c1ccccc1 | 18.8 µM (inactive) | 24 µM (inactive) | 34 µM (inactive) | 56 µM (inactive) | 25.5 µM (inactive) | 21.2 µM (inactive) | 16.2 µM (inactive) | 30.3 µM (inactive) | > 75.9 µM (inactive) | 29.8 µM (inactive) | 35.7 µM (inactive) | 28.2 µM (inactive) | 22.9 µM (inactive) | 18.1 µM (inactive) | 17.9 µM (inactive) | 24.4 µM (inactive) | 34.9 µM (inactive) |  | 20.7 µM (inactive) |
